Assay results as given in patent US20210214376A1, “HALOGENATED BIOTIN-MODIFIED DIMER AND USE THEREOF” (The University of Tokyo, priority 2018, published 2021).

B1: CEA-V2122 (scFv)
scFv: QVKLEQSGAEVVKPGASVKLSCKASGFNIKDSYMHWLRQGPGQRLEWIGWIDPENGDTEYAPKFQGKATFTTDTSANTAYLGLSSLRPEDTAVYYCNEGTPTGPYYFDYWGQGTLVTVSSGGGGSGGGGSGGGGSENVLTQSPSSMSVSVGDRVNIACSASSSVPYMHWLQQKPGKSPKLLIYLTSNLASGVPSRFSGSGSGTDYSLTISSVQPEDAATYYCQQRSSYPLTFGGGTKLEIKGGGGSGGGGAEAGITGTWSDQLGDTFIVTAGADGALTGTYENAVGGAESRYVLTGRYDSAPATDGSGTALGWTVAWKNNSKNAHSATTWSGQYVGGADAKINTQWLLTSGTTNANAWKSTLVGHDTFTKVKPSAASHHHHHH
notes: Fusion of an anti-CEACAM5 scFv and mutant streptavidin V2122; also called scFv-V2122 (anti-CEACAM5)

What was measured:
[1] = system: Herceptin-V2122; experiment: Binding assay of astatine-labeled Psyche B and Herceptin-Cupid using Ni-NTA magnetic beads; settings: Herceptin-V2122 solution versus PBS control; 5.8 kBq; FIG. 5
Method: In order to confirm whether or not astatine-labeled Psyche B has binding ability to Cupid, a binding assay was carried out using Herceptin-Cupid and Ni-NTA magnetic beads (manufactured by Thermo) that bind to a 6×His-tag added to Herceptin-Cupid. Psyche B-At211 used herein was prepared according to Example 1(4), whereas Herceptin-Cupid was prepared according to the method described in Japanese Patent Application 2018-247363, as described above. The specific assay method is as follows.
That is, 4 μL of Herceptin-V2122 solution or PBS used as a control was dispensed into a 1.5-mL tube. Into the tube, 10 μL (corresponding to 5.8 kBq) of Psyche-At211 was added, and the obtained mixture was then incubated at room temperature for 5 minutes. Subsequently, 10 μL of Ni-NTA magnetic beads equilibrated with PBS were added to the reaction mixture, and the thus obtained mixture was then incubated at room temperature for 5 minutes. Thereafter, the beads were precipitated and immobilized by using a magnet, and a supernatant was then recovered. The supernatant was washed with 100 μL of PBS twice, and the radiation dose was then counted using a gamma counter. The results are shown in the graph of FIG. 5.

[2] = system: HER2-positive SKOV3 cells; experiment: Binding of astatine-labeled Psyche B to Herceptin-V2122 pre-bound to SKOV3 cells; assay type: cell-based; settings: 10 kBq/tube; Herceptin-V2122 versus negative control CEA-V2122; FIG. 6
Method: (§1) Whether or not astatine-labeled Psyche B has binding ability to Herceptin-V2122, which had previously been bound to HER2-positive SKOV3 cells, was confirmed. As a negative control, CEA-V2122 was used. Psyche B-At211 used herein was prepared according to Example 1(4), whereas Herceptin-V2122 and CEA-V2122 were prepared according to the method described in Japanese Patent Application 2018-247363, as described above. The specific assay method is as follows.
(§2) Four 1.5-mL tubes were prepared, and the cells were then dispersed into each tube to a cell density of 0.875×10^6 cells/tube. Herceptin-V2122 was added to two tubes to result in N=2, whereas CEA-V2122 was added to the remaining two tubes. Subsequently, incubation was carried out on ice for 1 hour, and astatine-labeled Psyche B was then added to the resultant to 10 kBq/tube. Thereafter, the obtained mixture was incubated at room temperature for 30 minutes, while shaking. Finally, the cells were precipitated by centrifugation, and a supernatant was then recovered. The supernatant was washed with PBS twice, and the radiation dose was then counted using a gamma counter. The results are shown in the graph of FIG. 6.

[3] = molecular target: T1, CEA-V2122 (Streptomyces avidinii, UniProt P22629, Y46S/N47D/S51D/S69N/N73G/Y107S/R108K/E125D/R127K/E140N); experiment: Analysis of affinity of CEA-V2122 for Psyche B-iodine and Psyche P-iodine (Biacore T200, Single-Cycle Kinetics); assay type: binding; settings: for bond with CEA-V2122: conclusion from Table 1; for koff: immobilized CEA-V2122, 25° C., Bivalent Analyze mode curve fitting
T1 construct: At the C-terminus a 6xHis tag; The expressed gene carries a pelB signal
Description: (§3) The data regarding the affinity of CEA-V2122 for Psyche B-iodine and for Psyche P-iodine were obtained in accordance with the description of Japanese Patent Application 2018-247363. Briefly stating, using an amine coupling kit (GE Healthcare Life Sciences), Sensor Chip CM5 (GE Healthcare Life Science) was set to be a target value that was 5000 RU, and the purified CEA-V2122 was immobilized. With regard to the concentration of the analyte, 5 types of two-fold serial dilutions from 1E-08 M to 6.25E-10 M were used. Biacore T200 (GE Healthcare Life Sciences) was used, the measurement temperature was set to be 25° C., and kinetics data were then obtained according to Single-Cycle Kinetics analysis. Using Biacore T200 Evaluation Software, version 2.0 (GE Healthcare Life Sciences), the obtained data were subjected to curve fitting in a Bivalent Analyze mode, and the evaluation value of each parameter was obtained. The dissociation constant KD is obtained according to Kd/Ka=KD.

[4] = molecular target: T2, CEA-V2122 (Streptomyces avidinii, UniProt P22629, E125D/E140N/N47D/N73G/R108K/R127K/S51D/S69N/Y107S/Y46S); experiment: as above; assay type: binding; settings: for kon: read-out: Ka
T2 construct: At the C-terminus a 6xHis tag; The expressed gene carries a pelB signal
Description: as §3

[5] = molecular target: T3, HER2 (ERBB2) on HER2-positive SKOV3 ovarian cancer cells (UniProt P04626 23-1255, limits assumed); experiment: astatine-211-labeled Psyche B counted by gamma counter on SKOV3 cells pre-incubated with the fusion protein; CEA-V2122 as negative control
T3 construct: whole, on cells
Method: as §1
as §2, with “0.875×10⁶” for “0.875×10^6”, “6. The measurement results were Herceptin-V2122-dependent, and it was confirmed that Psyche B-At212 bound to the SKOV3 cells via Herceptin-V2122.” for “6.”

T1 sequence (P22629 whole entry Y46S/N47D/S51D/S69N/N73G/Y107S/R108K/E125D/R127K/E140N, looked up): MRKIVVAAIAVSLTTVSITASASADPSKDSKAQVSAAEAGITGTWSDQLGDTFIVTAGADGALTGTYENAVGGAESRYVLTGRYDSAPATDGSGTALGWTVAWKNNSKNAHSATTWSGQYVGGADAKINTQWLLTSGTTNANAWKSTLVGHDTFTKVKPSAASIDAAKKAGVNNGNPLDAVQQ
T2 sequence (P22629 whole entry E125D/E140N/N47D/N73G/R108K/R127K/S51D/S69N/Y107S/Y46S, looked up): as the sequence (P22629 whole entry Y46S/N47D/S51D/S69N/N73G/Y107S/R108K/E125D/R127K/E140N, looked up) above

binding result [5] | Molecule | precipitation with Ni-NTA magnetic beads, radiation dose by gamma counter [1] | binding to SKOV3 cells, radiation dose by gamma counter [2] | bond with CEA-V2122 [3] | koff [3] | Kd [4] | kon [4]
– | N=C1N[C@H]2[C@H](CS[C@H]2CCCCC(=O)NCCCCCC(=O)Nc2cc(NC(=O)CCCCCNC(=O)CCCC[C@@H]3SC[C@@H]4NC(=N)N[C@@H]43)cc(C(=O)NCCOCCOCCNC(=O)c3cccc([211At])c3)c2)N1.O=C(O)C(F)(F)F.O=C(O)C(F)(F)F [Psyche B-At211, (3aS,3a′S,4S,4′S,6aR,6a′R)-4,4′-(((((5-((2-(2-(2-(3-(Astato-^211At)benzamido)ethoxy)ethoxy)ethyl)carbamoyl)-1,3-phenylene)bis(azanediyl))bis(6-oxohexane-6,1-diyl))bis(azanediyl))bis(5-oxopentane-5,1-diyl))bis(tetrahydro-1H-thieno[3,4-d]imidazol-2(3H)-iminium) 2,2,2-trifluoroacetate] | precipitated in a Herceptin-V2122 presence-dependent manner | bound to the SKOV3 cells via Herceptin-V2122 | – | – | – | –
– | N=C1N[C@H]2[C@H](CS[C@H]2CCCCC(=O)NCCCCCC(=O)Nc2cc(NC(=O)CCCCCNC(=O)CCCC[C@@H]3SC[C@@H]4NC(=N)N[C@@H]43)cc(C(=O)NCCOCCOCCNC(=O)c3cccc(I)c3)c2)N1 [Psyche B-iodine, (3aS,3a′S,4S,4′S,6aR,6a′R)-4,4′-(((((5-((2-(2-(2-(3-Iodobenzamido)ethoxy)ethoxy)ethyl)carbamoyl)-1,3-phenylene)bis(azanediyl))bis(6-oxohexane-6,1-diyl))bis(azanediyl))bis(5-oxopentane-5,1-diyl))bis(tetrahydro-1H-thieno[3,4-d]imidazol-2(3H)-iminium) 2,2,2-trifluoroacetate] | – | – | form a stable bond with CEA-V2122 | 6.4e-07 s⁻¹ | 0.022 nM | 29000 M⁻¹ s⁻¹
– | N=C1N[C@H]2[C@H](CS[C@H]2CCCCCOCCCCNC(=O)CN(CCOCCOCCNC(=O)c2cccc(I)c2)CC(=O)NCCCCOCCCCC[C@@H]2SC[C@@H]3NC(=N)N[C@@H]32)N1 [Psyche P-iodine, 2,2′-((2-(2-(2-(3-Iodobenzamido)ethoxy)ethoxy)ethyl)azanediyl)bis(N-(4-((5-((3aS,4S,6aR)-2-iminohexahydro-1H-thieno[3,4-d]imidazol-4-yl)pentyl)oxy)butyl)acetamide) 2,2,2-trifluoroacetate] | – | – | form a stable bond with CEA-V2122 | 3.1e-05 s⁻¹ | 4.5 nM | 6800 M⁻¹ s⁻¹
no binding | B1 | – | – | – | – | – | –
